Marks after values point to notes of the source that are not given here.
How the values were obtained:
HT-29 xenografts = experiment: HT-29 xenograft growth; type: in vivo, nu/nu nude mice; conditions: Table 3B; HT-29; 30 days after inoculation
Protocol: Tumor growth was measured during a 30-day period. Tumor volume, one week after inoculation and before PF administration, was of 56+15 mm3. A. […] B. Growth profile of control ([…]) and t-PTER- and QUER (∘) (20 mg of each PF/kg)-treated HT-29-bearing mice. Data are means±S.D. of 18-20 mice per group. The significant test refers, for all groups, to the comparison between PTER and/or QUER and controls (treated with physiological saline) (*P<0.01). For HT-29 cancer cell xenograft experiments, female nu/nu nude mice (ages 6 to 8 weeks; […] Tumor volume was calculated based on two dimensions, measured using calipers, and was expressed in cubic millimeters according to the formula: […] For histological analysis the surgical and xenograft tissue samples were fixed in 4% formaldehyde, paraffin embedded, and stained with hematoxilin & eosin and safran. […] This study was conducted in compliance with international laws and policies (EEC Directive 86/609, OJ L 358. 1, Dec. 12, 1987; and NIH Guide for the Care and Use of Laboratory Animals, NIH Publ. No. 85-23, 1985). X rays were administered using a […] SL75 linear accelerator from Philips. For this purpose each mouse was anesthetized with nembutal (50 mg/kg i.p.), and fixed on a Perspex platform.

[1] = test system: HT-29/Tet-bcl-2 xenografts; experiment: HT-29/Tet-bcl-2 xenograft growth; type: in vivo, mice; conditions: Table 3B, 30 days after inoculation
Protocol: For HT-29 cancer cell xenograft experiments, female nu/nu nude mice (ages 6 to 8 weeks; Charles Rivers Laboratories, Wilmington, Mass.) were inoculated s.c. with 5×10^6 HT-29 or HT-29-GFP cells per mouse. Tumor volume was calculated based on two dimensions, measured using calipers, and was expressed in cubic millimeters according to the formula: V=0.5a×b2, where a and b are the long and the short diameters of the tumor, respectively. For histological analysis the surgical and xenograft tissue samples were fixed in 4% formaldehyde, paraffin embedded, and stained with hematoxilin & eosin and safran. Mice were monitored for at least 30 days after inoculation, and tumor measurements were taken on day 5, 10, 15, 20, 25, and 30. This study was conducted in compliance with international laws and policies (EEC Directive 86/609, OJ L 358. 1, Dec. 12, 1987; and NIH Guide for the Care and Use of Laboratory Animals, NIH Publ. No. 85-23, 1985). […]
(§1) The Tet-off gene expression system (Clontech, Palo Alto, Calif.) was used, as previously reported (17), to insert the human bcl-2 gene and for transfection into HT-29 cells following manufacturer's instructions. Bcl-2 protein was quantitated in the soluble cytosolic fraction by enzyme immunoassay (17) using a monoclonal antibody-based assay from Sigma (one unit of Bcl-2 was defined as the amount of Bcl-2 protein in 1000 non-transfected HT-29 cells).

SOD1 = experiment: SOD activity in xenograft samples; type: in vivo, human; conditions: single treatment (PQ or SOD2-AS)
Protocol: (§2) Tumor tissue was homogenized in 0.1M phosphate buffer (pH 7.2) at 4° C.
(§3) Superoxide dismutase (SOD) activity was measured as described by Flohé and Otting (14), using 2 mM cyanide in the assay medium to distinguish mangano-type enzyme (SOD2) from the cuprozinc type (SOD1).

SOD2 = experiment: SOD activity in xenograft samples; type: in vivo, human
Protocol: as §2, §3

bcl-2 [2] = experiment: Bcl-2 protein enzyme immunoassay in xenograft samples; type: in vivo, human; conditions: single treatment (PQ or SOD2-AS)
Excerpt: as §1

NF-κB p50/65 = experiment: NF-κB DNA binding ELISA in HT-29 nuclear extracts; type: cell-based, human; conditions: HT-29 cells; p65 siRNA transfection or 10 μg DHMEQ/ml, 2 h after removing the inhibitor
Protocol: HT-29 cells were cultured and treated with PFs as indicated in the caption to FIG. 1. (A) NF-κB binding to DNA (measured 3 h after the last PF addition). Recombinant human TNFα (0.5 nM, Sigma, St. Louis, Mo.) was added 6 h before the last PF addition. IκBα (B) and P-IκBα (C) analysis by western blot (lane 1, TNFα; lane 2, control; lane 3, […]). Relative densitometric intensities for protein bands from western blots of IκBα and P-IκBα) were normalized to β-actin (black bar, TNFα; white bar, control; grey bar, […]). […] Transfection of siRNA was performed as explained under “Materials and Methods”. (A) western blot analysis of p65 in cells transfected with p65 siRNA, or NS siRNA. For comparison NF-κB binding to DNA (B) and bcl-2 expression (RT-PCR) (C) were determined in HT-29 cells transfected with p65 siRNA or treated with dehydroxymethylepoxyquinomicin (DHMEQ). […] Nuclear extract were prepared as previously described (18). An enzyme linked immunosorbent assay (ELISA) was performed in line with the manufacturer's protocol for a commercial kit (Chemiluminiscent NF-κB p50/65 Transcription Factor Assay, Oxford Biomedical Research, Oxford, Mich.). […] The DNA bound NF-κB is selectively recognized by the primary antibody, which, in turn, is detected by the secondary antibodyalkaline phosphatase conjugate. […]

bcl-2 [3] = experiment: bcl-2 expression (RT-PCR) in cultured HT-29 cells; type: cell-based, human; conditions: p65 siRNA transfection or 10 μg DHMEQ/ml, 12 h after removing the inhibitor
Protocol: Transfection of siRNA was performed as explained under “Materials and Methods”. (A) western blot analysis of p65 in cells transfected with p65 siRNA, or NS siRNA. For comparison NF-κB binding to DNA (B) and bcl-2 expression (RT-PCR) (C) were determined in HT-29 cells transfected with p65 siRNA or treated with dehydroxymethylepoxyquinomicin (DHMEQ). For this purpose cultured HT-29 cells (24 h after seeding) were incubated in the absence or in the presence of 10 μg DHMEQ/ml, and NF-κB activation and bcl-2 expression were measured 2 h and 12 h, respectively, after removing the inhibitor.
Total RNA was isolated using the trizol kit from Invitrogen and following manufacturer's instructions. cDNA was obtained using a random hexamer primer and a MultiScribe Reverse Transcriptase kit as described by the manufacturer (TaqMan RT Reagents, Applied Biosystems, Foster City, Calif.). […]
Real-time quantitation of the mRNA relative to GAPDH was performed with a SYBR Green I assay, and a iCycler detection system (Biorad, Hercules, Calif.). […] The increase in fluorescence was measured in real time during the extension step. The threshold cycle (CT) was determined, and then the relative gene expression was expressed as: fold change=2^−Δ(ΔCT), where ΔCT=CT target−CT GAPDH, and Δ (ΔCT)=ΔCT treated−ΔCT control. […]

SOD2-AS: Fully phosphorothioated 21-mer human SOD2 antisense oligodeoxynucleotide, 5′-GGAACCUCACAUCAACGCGCA-3′ (DNA, all phosphorothioate, methylation of C and T or U not given here)
Tumor volume (HT-29 xenografts): 2337 ± 266^b mm^3
Tumor volume [1]: 2942 ± 387^ab mm^3
SOD1 activity (SOD1; HT-29/tet-Bcl-2 xenograft): 6.3 ± 0.48 Units/mg protein
SOD1 activity (SOD1; HT-29 xenograft): 5.77 ± 0.62 Units/mg protein
SOD2 activity (SOD2; HT-29/tet-Bcl-2 xenograft, single treatment (PQ or SOD2-AS)): 0.33 ± 0.12 Units/mg protein
SOD2 activity (SOD2; HT-29 xenograft, single treatment (PQ 20 mg each/kg or SOD2-AS 5 mg/kg each 3 days)): 0.27 ± 0.056^b Units/mg protein
Bcl-2 levels (bcl-2 [2]; HT-29/tet-Bcl-2 xenograft): 81 ± 9^a Units/mg protein
Bcl-2 levels (bcl-2 [2]; HT-29 xenograft): 19 ± 3 Units/mg protein

O=C(NC1=CC(=O)[C@H]2O[C@H]2[C@H]1O)c1ccccc1O [DHMEQ, dehydroxymethylepoxyquinomicin]
NF-κB binding to DNA (NF-κB p50/65): significant decrease
bcl-2 expression (bcl-2 [3]): significant decrease
